In patent US20200121677A1, “SUBSTITUTED 6,7-DIHYDROPYRAZOLO[1,5-a]PYRAZINES AS NEGATIVE ALLOSTERIC MODULATORS OF MGLUR2 RECEPTORS” (Janssen Pharmaceutica NV, priority 2014, published 2020):
Read-outs that look alike come from different tables or passages of the source.

Tests used:
rats = test: Reversal of the effect of the mGluR2 PAM JNJ-42153605-induced inhibition of scopolamine-induced hyperlocomotion; type: in vivo, rat; conditions: rats, route PO, criterion total distance >1500 cm; for ED50: Rattus norvegicus, read-out: ED50 SCOP JNJ-42153605 (Reversal of the effect of JNJ 42153605 on scopolamine-induced hyperlocomotion)
Procedure: 2) Reversal of the Effect of the mGluR2 PAM JNJ-42153605-Induced Inhibition of Scopolamine-Induced Hyperlocomotion
Motor activity was measured in microprocessor-based motor activity arenas (closed gray PVC cylinders with a height of 39 cm and a diameter of 31 cm). Each arena was placed on an infrared LED (8×8 LEDs) lit box (white PVC squared box; 40×40 cm^2; height 12.5 cm. An infrared-sensitive tube camera and a white light source were mounted to the ceiling above the observation chamber to track the animal. The total distance traveled (cm) was recorded and analyzed using the Noldus Ethovision XT Video Tracking System (Version 7.0.418; Noldus, Wageningen, The Netherlands). The intensity of the light within the activity cages (measured in the centre at the level of the floor) ranged between 4 and 8 LUX.
The rats were pretreated with test compound or vehicle at 60 min before the start of the activity recordings and placed into individual cages. The rats were challenged with JNJ-42153605 (3-(cyclopropylmethyl)-7-(4-phenylpiperidin-1-yl)-8-(trifluoromethyl)[1,2,4]triazolo[4,3-a]pyridine; WO2010/130424; Cid et al. J. Med. Chem. 2012, 55, 8770-8789) (20 mg/kg, i.v.) 30 min before the start of the activity recording combined with scopolamine (0.16 mg/kg, i.v.) just before the start of the activity measurements. Immediately after the injection of scopolamine, the rats were placed into the activity monitors and total distance traveled over the first 30 min was measured.
For reversal of the inhibitory effect of JNJ-42153605 on the scopolamine-induced hyperlocomotion, the following all-or-none criteria were adopted: (1) reversal: total distance >1500 cm.

Wiga rats = test: Induction of mydriasis (pupil diameter, test 1 and test 2); type: in vivo, rat; conditions: route PO; for ED50: Rattus norvegicus
Procedure: 3) Induction of Mydriasis
The pupil diameter of Wiga rats was measured with a microscopic micrometer (1 unit=1/24 mm). Criteria for drug-induced effects: pupil diameter >25 units for mydriasis (in controls: 1.9%) 1 h post-administration of the test compound (test 1) or 1, 2 or 3 h post-administration of the test compound (test 2, wherein the maximum pupil diameter over the full 3 h period is reported).

Male Wiga Wistar rats = test: Reversal of LY-404039-induced decrease of palpebral opening in apomorphine-challenged rats; type: in vivo, rat; conditions: rats, route PO (route cell empty for Co. 88 and 84); for ED50: Rattus norvegicus, read-out: ED50 APO LY-404039 (Reversal of LY-404039-induced decrease of palpebral opening in apomorphine challenged rats)
Procedure: 1) Reversal of LY-404039-Induced Decrease of Palpebral Opening in Apomorphine-Challenged Rats.
Male Wiga Wistar rats (Crl:WI; Charles River Germany; 220±40 g) were housed under standard laboratory conditions (21±2° C.; 50-65% relative humidity; light-dark cycle set at 12 h; lights on at 6.00 h) and fasted overnight prior to the start of the experiments (tap water remained available ad libitum). During the test period, they were housed in individual cages. Palpebral opening was scored every 5 min over the first hour after injection of apomorphine (1.0 mg/kg, i.v.) in animals either pretreated or not pretreated with LY-404039 (2.5 mg/kg, s.c.) at 1 h prior to the apomorphine injection. The animals were also pretreated with test compound or solvent at a predefined interval before apomorphine challenge. The score system was: (5) exophthalmos, (4) wide open, (3) open for three-quarters, (2) half open, (1) open for one-quarter, (0) closed. The scores for palpebral opening were cumulated over the 60-min observation period.

human mGlu2 receptor = human mGlu2 receptor (Homo sapiens, UniProt Q14416); test: [35S]GTPγS binding assay, mGluR2 negative allosteric modulation (membranes from CHO cells transfected with human mGlu2 receptor, glutamate ~EC80 60 μM); conditions: for IC50: GTPγS - hmGluR2 anGT pIC50, membranes with human mGlu2 receptor; for IC50 / GTPγS - hmGluR2 anGT pIC50: glutamate ~EC80 (60 μM), pIC50 = -log IC50 (M); for Emax: read-out: GTPγS - hmGluR2 anGT Emax, relative maximal effect: maximal % inhibition relative to the control glutamate response; for GTPγS - hmGluR2 anGT pIC50: membranes with human mGlu2 receptor; for GTPγS - hmGluR2 anGT Emax: relative maximal effect: maximal % inhibition relative to the control glutamate response;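 as to all read-outs here: membranes preincubated 30 min at 30 °C with compound plus glutamate, then [35S]GTPγS (0.1 nM) incorporation measured over another 30 min at 30 °C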
human mGlu2 receptor, sequence (Q14416 19-872): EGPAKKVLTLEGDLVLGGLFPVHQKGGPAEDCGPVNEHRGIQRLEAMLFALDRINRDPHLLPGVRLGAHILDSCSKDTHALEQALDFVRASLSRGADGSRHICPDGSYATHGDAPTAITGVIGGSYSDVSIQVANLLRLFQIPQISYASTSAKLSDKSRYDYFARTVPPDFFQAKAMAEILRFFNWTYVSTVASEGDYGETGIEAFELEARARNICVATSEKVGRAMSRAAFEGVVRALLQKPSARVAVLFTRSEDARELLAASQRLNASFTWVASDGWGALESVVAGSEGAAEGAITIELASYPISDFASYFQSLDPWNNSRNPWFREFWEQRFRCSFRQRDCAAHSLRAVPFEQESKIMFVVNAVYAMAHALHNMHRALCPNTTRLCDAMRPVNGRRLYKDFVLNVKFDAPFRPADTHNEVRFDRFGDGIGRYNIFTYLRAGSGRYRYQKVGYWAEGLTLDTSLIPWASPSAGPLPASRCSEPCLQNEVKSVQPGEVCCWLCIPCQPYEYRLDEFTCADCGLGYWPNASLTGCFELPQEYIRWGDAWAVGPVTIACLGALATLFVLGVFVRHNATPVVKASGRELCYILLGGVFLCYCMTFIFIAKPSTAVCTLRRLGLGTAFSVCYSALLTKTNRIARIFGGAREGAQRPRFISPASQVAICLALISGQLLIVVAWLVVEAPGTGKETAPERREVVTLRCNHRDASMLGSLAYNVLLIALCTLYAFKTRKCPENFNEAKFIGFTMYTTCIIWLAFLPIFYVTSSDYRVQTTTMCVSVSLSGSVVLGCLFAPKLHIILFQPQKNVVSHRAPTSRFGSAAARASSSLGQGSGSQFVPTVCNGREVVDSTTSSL

[1] = pupil diameter >25 units, maximum over 1, 2 or 3 h post-administration, read-out: ED50 MYD Test 2 (Induction of mydriasis)
[2] = pupil diameter >25 units, maximum over 1, 2 or 3 h post-administration

melting point | IC50 (human mGlu2 receptor) | Emax (human mGlu2 receptor) | GTPγS - hmGluR2 anGT pIC50 (human mGlu2 receptor) | GTPγS - hmGluR2 anGT Emax (human mGlu2 receptor) | SMILES | ED50 (rats) | ED50 (Wiga rats; pupil diameter >25 units 1 h post-administration, read-out: ED50 MYD Test 1 (Induction of mydriasis)) | ED50 (Male Wiga Wistar rats) | ED50 (Wiga rats; [1]) | ED50 SCOP JNJ-42153605 (Reversal of the effect of JNJ 42153605 on scopolamine-induced hyperlocomotion) (rats) | ED50 MYD Test 2 (Induction of mydriasis) (Wiga rats; [2]) | ED50 APO LY-404039 (Reversal of LY-404039-induced decrease of palpebral opening in apomorphine challenged rats) (Male Wiga Wistar rats)
215 °C | 3.02e-09 M | 105% | – | – | Cc1cc(NC(=O)c2cnn3c2C(=O)N(c2ccc(C(F)(F)F)cc2)C[C@@H]3C)ccn1 [compound 5] | 1.27 mg/kg | > 10 mg/kg | 0.32 mg/kg | – | – | – | –
167.35 °C | 1.91e-09 M | 111% | – | – | C[C@H]1CN(c2ccc(C(F)(F)F)cc2)C(=O)c2c(C(=O)Nc3cccnc3)cnn21 [compound 1, (7S)-7-methyl-4-oxo-N-(3-pyridyl)-5-[4-(trifluoromethyl)phenyl]-6,7-dihydropyrazolo[1,5-a]pyrazine-3-carboxamide] | 0.2 mg/kg | – | 0.39 mg/kg | > 40 mg/kg | – | – | –
– | – | – | 8.8 | 105% | Cc1cc(NC(=O)c2cnn3c2C(=O)N(c2ccc(Cl)c(Cl)c2)C[C@@H]3C)cc(C)n1 [compound 118] | – | – | – | – | >0.63 mg/kg | 1.3 mg/kg | >0.63 mg/kg
250.1 °C | 6.76e-09 M | 109% | – | – | C[C@H]1CN(c2ccc(Cl)cc2)C(=O)c2c(C(=O)Nc3cnccn3)cnn21 [compound 162] | 0.13 mg/kg | – | – | > 10 mg/kg | – | – | –
156.85 °C | 8.51e-10 M | 111% | – | – | Cc1cc(N2C[C@H](C)n3ncc(C(=O)Nc4cccnc4)c3C2=O)ccc1C(F)(F)F [compound 36, (7S)-7-Methyl-5-[3-methyl-4-(trifluoromethyl)phenyl]-4-oxo-N-(3-pyridyl)-6,7-dihydropyrazolo[1,5-a]pyrazine-3-carboxamide] | 0.2 mg/kg | – | – | 20 mg/kg | – | – | –
259 °C | 3.72e-09 M | 105% | – | – | COc1cc(N2C[C@H](C)n3ncc(C(=O)Nc4cncc(F)c4)c3C2=O)ccc1C(F)(F)F [compound 117] | 0.51 mg/kg | – | – | > 10 mg/kg | – | – | –
246.7 °C | 1.12e-08 M | 103% | – | – | C[C@H]1CN(c2ccc(C(F)(F)F)cc2)C(=O)c2c(C(=O)Nc3ccccn3)cnn21 [compound 9] | 0.32 mg/kg | – | > 2.5 mg/kg | > 10 mg/kg | – | – | –
186.5 °C | 1.15e-09 M | 108% | – | – | Cc1ccncc1NC(=O)c1cnn2c1C(=O)N(c1ccc(C(F)(F)F)c(C)c1)C[C@@H]2C [compound 38] | 0.2 mg/kg | – | – | 2 mg/kg | – | – | –
– | – | – | 8.57 | 118% | Cc1cc(NC(=O)c2cnn3c2C(=O)N(c2ccc(C(F)(F)F)cc2)C[C@@H]3C)cc(C)n1 [compound 101] | – | – | – | – | 0.5 mg/kg | >10 mg/kg | 0.79 mg/kg
213.63 °C | 1.35e-09 M | 109% | – | – | C[C@H]1CN(c2ccc(Cl)c(Cl)c2)C(=O)c2c(C(=O)Nc3cnccn3)cnn21 [compound 116] | 0.05 mg/kg | – | – | 5 mg/kg | – | – | –
